Values quoted from earlier work as cited in patent publication US20100151008A1, “Preparations and Methods for Textile and or Fiber Surface Finishing, Surface Finished Articles Prepared Thereby, and Uses Therefor” (Cognis IP Management GmbH, priority 2003, published 2010).

solubility in ether, benzene and petroleum ether (ether, benzene and petroleum ether): soluble | solubility in water (water): virtually insoluble
SMILES: CC(C)CCC[C@@H](C)[C@H]1CC[C@H]2[C@@H]3CC=C4C[C@@H](O)CC[C@]4(C)[C@H]3CC[C@]12C [cholesterol, 5-cholesten-3b-ol]
solubility in alcohol (alcohol): only sparingly when cold, but more readily after heating
